# In patent US8518916B2, “Heterocyclic derivatives as M-GLU5 antagonists” (Recordati Ireland Limited, priority 2007, dated 2013):
# Tests used:
# conscious rats = assay: Cystometry in conscious rats (bladder volume capacity); format: in vivo, rat; settings: for "In vivo" cystometry MED (Minimal Effective Dose that induces statistically significant increase of bladder volume capacity): oral; for effect on bladder volume capacity: 1-3 h after treatment
# Description: Male Sprague-Dawley rats [Crl: CD® (SD) IGS BR] of 300-400 g b.w. supplied by Charles River Italia were used. The animals were housed with free access to food and water and maintained on a forced 12-hour-light/12-hour-dark cycle at 22-24° C. of temperature, except during the experiment. To quantify urodynamic parameters in conscious rats, cystometrographic studies were performed according to the procedure previously reported (Guarneri et al., Pharmacol. Res. 24: 175, 1991).
# Briefly, the rats were anaesthetised by intraperitoneal administration of 3 ml/kg of Equithensin solution (pentobarbital 30 mg/kg and chloral hydrate 125 mg/kg) and placed in a supine position. An approximately 10 mm long midline incision was made in the shaved and cleaned abdominal wall. The urinary bladder was gently freed from adhering tissues, emptied and then cannulated via an incision in the bladder body, using a polyethylene cannula (0.58 mm internal diameter, 0.96 mm external diameter) which was permanently sutured with silk thread. The cannula was exteriorised through a subcutaneous tunnel in the retroscapular area, where it was connected to a plastic adapter in order to avoid the risk of removal by the animal. For drug testing, the rats were utilised one day after implantation.
# On the day of the experiment, the rats were placed in modified Bollman cages, i.e., restraining cages that were large enough to permit the rats to adopt a normal crouched posture, but narrow enough to prevent turning around. After a stabilisation period of about 20 minutes, the free tip of the bladder cannula was connected through a T-shaped tube to a pressure transducer (Statham P23XL) and to a peristaltic pump (Gilson Minipuls 2) for continuous infusion of a warm (37° C.) saline solution into the urinary bladder, at a constant rate of 0.1 ml/minute. The intraluminal-pressure signal during infusion of saline into the bladder (cystometrogram) was continuously recorded on a polygraph (Rectigraph-8K San-ei with BM614/2 amplifier from Biomedica Mangoni) or stored on PC by data acquisition system (PowerLab, Chart 4 software, AD Instruments). From the cystometrogram, bladder volume capacity (BVC) was evaluated. BVC (in ml) is defined as the volume of saline infused into the bladder necessary to induce detrusor contraction followed by micturition. Basal BVC value was evaluated as the mean of the values observed in the cystometrograms recorded in an initial period of 30-60 minutes. At this point in the assay, the infusion was interrupted and the test compounds were administered orally by a stomach tube. The bladder infusion restarted and changes in BVC were evaluated from the mean values obtained in the cystometrograms observed during 1, 2, and 3 hours after treatment. The compounds were administered in a volume of 2 ml/kg. Groups of control animals received the same amount of vehicle corresponding to a solution 0.5% methocel in water.
# Under the given test conditions, measurement of BVC is equivalent to measurement of interval time between micturitions.
# Each experimental group was composed of 4-11 animals. All data were expressed as mean±standard error. The percent change of BVC versus the basal value, as well as Δ value (difference in ml) of BVC (BVC at time “x” minus basal value), were also evaluated for each rat/time. In the figures, data are reported as % change versus the basal value.
# Statistical analysis on BVC values, as well as on Δ values, was performed by S.A.S./STAT software, version 6.12. The difference between vehicle and active treatment effect was evaluated on Δ values of BVC, whereas the difference between the values at different times versus the basal values was evaluated on original BVC data.
# mGlu5 receptor = molecular target: T1, mGlu5 receptor (Rattus norvegicus, UniProt P31424); assay: Radioligand binding assay ([3H]MPEP) at metabotropic glutamate receptor 5 in rat brain; settings: rat forebrain membranes, 4 nM [3H]MPEP; read-out: affinity (Ki) for mGlu5 receptor
# T1 construct: from tissue; host or cells: forebrain (cortex, striatum and hippocampus) of male Sprague Dawley rats
# T1 sequence (P31424 21-1203): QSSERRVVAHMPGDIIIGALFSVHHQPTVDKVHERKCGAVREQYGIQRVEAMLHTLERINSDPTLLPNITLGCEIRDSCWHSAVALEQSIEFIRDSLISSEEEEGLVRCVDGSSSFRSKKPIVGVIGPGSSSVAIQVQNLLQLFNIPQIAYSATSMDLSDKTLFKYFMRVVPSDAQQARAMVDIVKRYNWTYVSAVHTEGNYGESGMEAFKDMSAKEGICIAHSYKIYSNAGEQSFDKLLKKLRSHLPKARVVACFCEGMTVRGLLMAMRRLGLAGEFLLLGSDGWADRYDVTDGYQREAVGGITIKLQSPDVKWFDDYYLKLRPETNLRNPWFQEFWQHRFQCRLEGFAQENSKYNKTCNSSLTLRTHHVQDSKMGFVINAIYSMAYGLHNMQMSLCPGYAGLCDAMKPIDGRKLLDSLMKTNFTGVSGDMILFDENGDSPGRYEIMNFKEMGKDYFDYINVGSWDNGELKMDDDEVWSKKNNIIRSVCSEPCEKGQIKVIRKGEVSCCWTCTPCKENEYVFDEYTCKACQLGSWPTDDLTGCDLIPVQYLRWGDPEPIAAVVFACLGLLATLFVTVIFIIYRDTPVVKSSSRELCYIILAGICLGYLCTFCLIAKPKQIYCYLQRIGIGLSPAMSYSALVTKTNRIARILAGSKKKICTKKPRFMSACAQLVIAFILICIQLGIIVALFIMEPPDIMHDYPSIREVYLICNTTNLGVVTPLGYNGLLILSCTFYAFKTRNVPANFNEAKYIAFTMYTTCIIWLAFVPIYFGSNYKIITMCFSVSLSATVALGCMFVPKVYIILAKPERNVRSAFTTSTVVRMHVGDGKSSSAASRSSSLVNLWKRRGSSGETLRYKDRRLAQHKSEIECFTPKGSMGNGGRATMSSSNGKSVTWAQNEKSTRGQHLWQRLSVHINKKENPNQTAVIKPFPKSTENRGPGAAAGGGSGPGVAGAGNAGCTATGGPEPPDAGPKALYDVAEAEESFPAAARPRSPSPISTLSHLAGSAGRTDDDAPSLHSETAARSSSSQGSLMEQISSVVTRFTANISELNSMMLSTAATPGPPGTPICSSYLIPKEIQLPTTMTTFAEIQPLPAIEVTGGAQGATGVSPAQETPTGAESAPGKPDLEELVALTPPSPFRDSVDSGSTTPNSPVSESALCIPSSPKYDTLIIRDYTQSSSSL
# Description: Radioligand Binding Assay at metabotropic glutamate receptor 5 in rat brain.
# a) Membrane preparation: male Sprague Dawley rats (200-300 g, Charles River, Italy) were killed by cervical dislocation and the forebrain (cortex, striatum and hippocampus) was homogenized (2×20 sec) in 50 vols of cold 50 mM Tris buffer pH 7.4, using a Politron homogenizer (Kinematica). Homogenates were centrifuged at 48000×g for 15 min, resuspended in 50 vols of the same buffer, incubated at 37° C. for 15 min and centrifuged and resuspended two more times. The final pellets were frozen and stored at −80° C. until use.
# b) Binding assay: pellets from rat forebrain were resuspended in 100 vols of 20 mM HEPES, 2 mM MgCl2, 2 mM CaCl2, pH 7.4. The membranes were incubated in a final volume of 1 ml for 60 min at 25° C. with 4 nM [^3H]MPEP in the absence or presence of competing drugs. Non-specific binding was determined in the presence of 10 μM MPEP (Spooren W. et al., Trends Pharmacol Sci. 22, 331-337, 2001). The incubation was stopped by the addition of cold Tris buffer pH 7.4 and rapid filtration through 0.5% polyethyleneimine pretreated Filtermat 1204-401 (Wallac) filters. The filters were then washed with cold buffer and the radioactivity retained on the filters was counted by liquid scintillation spectrometry. […]
Structure (SMILES),"""In vivo"" cystometry MED (Minimal Effective Dose that induces statistically significant increase of bladder volume capacity) (conscious rats) [mg/kg os]",further results
"O=[N+]([O-])c1cccnc1N1CCC(=CC#Cc2ccccn2)CC1 [Example 9, 3-Nitro-2-[4-(3-pyridin-2-ylprop-2-ynylidene)piperidin-1-yl]pyridine]",1,–
"Cc1cccc(C#CC=C2CCN(c3ncccc3[N+](=O)[O-])CC2)n1 [Example 1, 2-{4-[3-(6-Methylpyridin-2-yl)prop-2-ynylidene]piperidin-1-yl}-3-nitropyridine]",3,Ki (mGlu5 receptor): 0.37 nM; effect on bladder volume capacity (conscious rats; 1 mg/kg orally): proved effective in increasing the bladder volume capacity; effect on bladder volume capacity (conscious rats; 3 mg/kg orally): proved effective in increasing the bladder volume capacity
"O=[N+]([O-])c1cccnc1N1CCC(=CC#Cc2cccc(Br)c2)CC1 [Example 208, 2-{4-[3-(3-Bromophenyl)prop-2-yn-1-ylidene]piperidin-1-yl}-3-nitropyridine]",0.3,–
"Cc1cccc(C#CC=C2CCN(c3ccccc3C#N)CC2)n1 [Example 43, 2-{4-[3-(6-Methylpyridin-2-yl)prop-2-ynylidene]piperidin-1-yl}benzonitrile]",3,–
"Cc1cccc(C#CC=C2CCN(c3ccc(F)cc3[N+](=O)[O-])CC2)n1 [Example 55, 2-{3-[1-(4-Fluoro-2-nitrophenyl)piperidin-4-ylidene]prop-1-ynyl}-6-methylpyridine]",0.3,–
"Cc1nc(C#Cc2cccnc2)cs1 [MTEP, reference compound]",3,effect on bladder volume capacity (conscious rats; 1 mg/kg orally): only a slight increase of bladder volume capacity; effect on bladder volume capacity (conscious rats; 3 mg/kg orally): sustained increase
"O=[N+]([O-])c1cccnc1N1CCC(=C(F)C#Cc2ccccc2)CC1 [Example 67, 2-[4-(1-Fluoro-3-phenylprop-2-yn-1-ylidene)piperidin-1-yl]-3-nitropyridine]",1,–
"Cc1cccc(C#CC=C2CCN(c3nc(C)ccc3[N+](=O)[O-])CC2)n1 [Example 5, 6-Methyl-2-[4-[3-(6-methylpyridin-2-yl)prop-2-ynylidene]piperidin-1-yl]-3-nitropyridine]",0.1,–
"O=[N+]([O-])c1cccnc1N1CCC(=CC#Cc2ccc(F)nc2)CC1 [Example 35, 2-{4-[3-(6-Fluoropyridin-3-yl)prop-2-ynylidene]piperidin-1-yl}-3-nitropyridine]",3,–
"O=[N+]([O-])c1cccnc1N1CCC(=CC#Cc2ccccc2)CC1 [Example 10, 3-Nitro-2-[4-(3-phenylprop-2-ynylidene)piperidin-1-yl]pyridine]",1,effect on bladder volume capacity (conscious rats; 0.3 mg/kg orally): slightly increased the bladder volume capacity (not statistical significant); effect on bladder volume capacity (conscious rats; 1 mg/kg orally): proved effective in increasing bladder volume capacity
"Cc1cccc(C#CC=C2CCN(c3ccc(C#N)cc3[N+](=O)[O-])CC2)n1 [Example 56, 4-{4-[3-(6-Methylpyridin-2-yl)prop-2-ynylidene]piperidin-1-yl}-3-nitrobenzonitrile]",1,–
"O=[N+]([O-])c1cccnc1N1CCC(=CC#Cc2cc(F)cc(F)c2)CC1 [Example 202, 2-{4-[3-(3,5-Difluorophenyl)prop-2-yn-1-ylidene]piperidin-1-yl}-3-nitropyridine]",3,–
"COc1ccc([N+](=O)[O-])c(N2CCC(=CC#Cc3cccc(C)n3)CC2)n1 [Example 6, 6-Methoxy-2-{4-[3-(6-methylpyridin-2-yl)prop-2-ynylidene]piperidin-1-yl}-3-nitropyridine]",1,–
